Converted amounts (≈) assume the structure as drawn.
Key:
Candida albicans [1] = assay: Antifungal activity against Candida albicans 901 measured after 24 hrs by micro-broth dilution assay; format: functional
Candida albicans [2] = assay: Antifungal activity against Candida albicans CPCC400616 measured after 24 hrs by micro-broth dilution assay; format: functional
Candida albicans [3] = assay: Inhibition of CYP51 in azole-resistant Candida albicans ATCC […] assessed as ergosterol level at 0.03125 ug/ml incubated for 16 hrs by LC-MS analysis relative to control; parameters: scale not given: the % may be the effect or the level left; details: dose 0.03125 µg/ml
Candida albicans [4] = assay: Inhibition of CYP51 in azole-resistant Candida albicans ATCC […] assessed as Eburicol level at 0.03125 ug/ml incubated for 16 hrs by LC-MS analysis relative to control; parameters: scale not given: the % may be the effect or the level left; details: dose 0.03125 µg/ml
Candida albicans [5] = assay: Antifungal activity against Candida albicans ATCC SC5314 measured after 24 hrs by micro-broth dilution assay; format: functional
Candida albicans [6] = assay: Inhibition of CYP51 in azole-resistant Candida albicans ATCC […] assessed as Lanosterol level at 8 ug/ml incubated for 16 hrs by LC-MS analysis relative to control; parameters: scale not given: the % may be the effect or the level left; details: dose 8.0 µg/ml
Candida albicans [7] = assay: Inhibition of CYP51 in azole-resistant Candida albicans ATCC […] assessed as Lanosterol level at 0.03125 ug/ml incubated for 16 hrs by LC-MS analysis relative to control; parameters: scale not given: the % may be the effect or the level left; details: dose 0.03125 µg/ml
[Candida] zeylanoides = Antifungal activity against Candida zeylanoides CMGCC2.3739 measured after 24 hrs by micro-broth dilution assay; format: functional; details: Dujonia zeylanoides
Candida albicans [8] = assay: Antifungal activity against fluconazole-resistant Candida albicans 17 measured after 24 hrs by micro-broth dilution assay; format: functional
Candida albicans [9] = assay: Inhibition of CYP51 in azole-resistant Candida albicans ATCC […] assessed as Obtusifoliol level at 0.5 ug/ml incubated for 16 hrs by LC-MS analysis relative to control; parameters: scale not given: the % may be the effect or the level left; details: dose 0.5 µg/ml
Candida albicans [10] = assay: Inhibition of CYP51 in azole-resistant Candida albicans ATCC […] assessed as Lanosterol level at 0.125 ug/ml incubated for 16 hrs by LC-MS analysis relative to control; parameters: scale not given: the % may be the effect or the level left; details: dose 0.125 µg/ml
Candida albicans [11] = assay: Inhibition of CYP51 in azole-resistant Candida albicans ATCC […] assessed as ergosterol level at 2 ug/ml incubated for 16 hrs by LC-MS analysis relative to control; parameters: scale not given: the % may be the effect or the level left; details: dose 2.0 µg/ml
Candida parapsilosis = assay: Antifungal activity against Candida parapsilosis ATCC 22019 measured after 24 hrs by micro-broth dilution assay; format: functional; details: Lodderomyces parapsilosis
Candida albicans [12] = assay: Inhibition of CYP51 in azole-resistant Candida albicans ATCC […] assessed as Eburicol level at 2 ug/ml incubated for 16 hrs by LC-MS analysis relative to control; parameters: scale not given: the % may be the effect or the level left; details: dose 2.0 µg/ml
Candida albicans [13] = assay: Antifungal activity against fluconazole-resistant Candida albicans 632 measured after 24 hrs by micro-broth dilution assay; format: functional
Candida albicans [14] = assay: Inhibition of CYP51 in azole-resistant Candida albicans ATCC […] assessed as Lanosterol level at 2 ug/ml incubated for 16 hrs by LC-MS analysis relative to control; parameters: scale not given: the % may be the effect or the level left; details: dose 2.0 µg/ml
Candida albicans [15] = assay: Inhibition of CYP51 in azole-resistant Candida albicans ATCC […] assessed as Eburicol level at 0.125 ug/ml incubated for 16 hrs by LC-MS analysis relative to control; parameters: scale not given: the % may be the effect or the level left; details: dose 0.125 µg/ml
Candida albicans [16] = assay: Inhibition of CYP51 in azole-resistant Candida albicans ATCC […] assessed as ergosterol level at 0.125 ug/ml incubated for 16 hrs by LC-MS analysis relative to control; parameters: scale not given: the % may be the effect or the level left; details: dose 0.125 µg/ml
Candida albicans [17] = assay: Inhibition of CYP51 in azole-resistant Candida albicans ATCC […] assessed as Lanosterol level at 0.5 ug/ml incubated for 16 hrs by LC-MS analysis relative to control; parameters: scale not given: the % may be the effect or the level left; details: dose 0.5 µg/ml
Candida albicans [18] = assay: Inhibition of CYP51 in azole-resistant Candida albicans ATCC […] assessed as Obtusifoliol level at 2 ug/ml incubated for 16 hrs by LC-MS analysis relative to control; parameters: scale not given: the % may be the effect or the level left; details: dose 2.0 µg/ml
Candida albicans [19] = assay: Inhibition of CYP51 in azole-resistant Candida albicans ATCC […] assessed as Obtusifoliol level at 0.125 ug/ml incubated for 16 hrs by LC-MS analysis relative to control; parameters: scale not given: the % may be the effect or the level left; details: dose 0.125 µg/ml
Candida albicans [20] = assay: Inhibition of CYP51 in azole-resistant Candida albicans ATCC […] assessed as ergosterol level at 0.5 ug/ml incubated for 16 hrs by LC-MS analysis relative to control; parameters: scale not given: the % may be the effect or the level left; details: dose 0.5 µg/ml
Candida albicans [21] = assay: Inhibition of CYP51 in azole-resistant Candida albicans ATCC […] assessed as Eburicol level at 8 ug/ml incubated for 16 hrs by LC-MS analysis relative to control; parameters: scale not given: the % may be the effect or the level left; details: dose 8.0 µg/ml
Candida albicans [22] = assay: Inhibition of CYP51 in azole-resistant Candida albicans ATCC […] assessed as Obtusifoliol level at 0.03125 ug/ml incubated for 16 hrs by LC-MS analysis relative to control; parameters: scale not given: the % may be the effect or the level left; details: dose 0.03125 µg/ml
Pichia kudriavzevii = assay: Antifungal activity against Candida krusei AS 2.1045 measured after 24 hrs by micro-broth dilution assay; format: functional
Candida albicans [23] = assay: Inhibition of CYP51 in azole-resistant Candida albicans ATCC […] assessed as inhibition of ergosterol biosynthesis by measuring ergosterol content at 8 ug/ml incubated for 16 hrs by LC-MS analysis relative to control; parameters: scale not given: the % may be the effect or the level left; details: dose 8.0 µg/ml
Candida albicans [24] = assay: Inhibition of CYP51 in azole-resistant Candida albicans ATCC […] assessed as Obtusifoliol level at 8 ug/ml incubated for 16 hrs by LC-MS analysis relative to control; parameters: scale not given: the % may be the effect or the level left; details: dose 8.0 µg/ml
Nakaseomyces glabratus = assay: Antifungal activity against clinical isolate Candida glabrata measured after 24 hrs by micro-broth dilution assay; format: functional
Aspergillus fumigatus = assay: Antifungal activity against Aspergillus fumigatus CGMCC 3.7795 measured after 72 hrs by micro-broth dilution assay; format: functional
Cryptococcus neoformans = assay: Antifungal activity against Cryptococcus neoformans CGMCC2.3161 measured after 72 hrs by micro-broth dilution assay; format: functional
Candida albicans [25] = assay: Antifungal activity against fluconazole-resistant Candida albicans CaR measured after 24 hrs by micro-broth dilution assay; format: functional
Candida albicans [26] = assay: Inhibition of CYP51 in azole-resistant Candida albicans ATCC […] assessed as Eburicol level at 0.5 ug/ml incubated for 16 hrs by LC-MS analysis relative to control; parameters: scale not given: the % may be the effect or the level left; details: dose 0.5 µg/ml
Candida albicans [27] = assay: Antifungal activity against fluconazole-resistant Candida albicans strain 904 measured after 24 hrs by micro-broth dilution assay; format: functional

**Q.** OC(Cn1cncn1)(Cn1cncn1)c1ccc(F)cc1F [FLUCONAZOLE] was tested. Which MIC (Candida albicans [1]) did it give?
**A.** The MIC was greater than 128 µg/mL.

**Q.** What about the MIC (Candida albicans [2]) of the same molecule?
**A.** Its MIC is 4 µg/mL (≈ 13.1 µM).

**Q.** What about the Activity (Candida albicans [3]) of the same molecule?
**A.** Its Activity is 12.2%.

**Q.** And the Activity (Candida albicans [4])?
**A.** The Activity was 2.9%.

**Q.** What about the MIC (Candida albicans [5]) of the same molecule?
**A.** The MIC was 1 µg/mL (≈ 3.27 µM).

**Q.** And the Activity (Candida albicans [6])?
**A.** Its Activity is 9.4%.

**Q.** What about the Activity (Candida albicans [7]) of the same molecule?
**A.** The Activity was 9.8%.

**Q.** What about the MIC ([Candida] zeylanoides) of the same molecule?
**A.** Its MIC is 4 µg/mL (≈ 13.1 µM).

**Q.** What about the MIC (Candida albicans [8]) of the same molecule?
**A.** Its MIC is 128 µg/mL (≈ 418 µM).

**Q.** And the Activity (Candida albicans [9])?
**A.** Its Activity is 9%.

**Q.** And the Activity (Candida albicans [10])?
**A.** Its Activity is 7.2%.

**Q.** What about the Activity (Candida albicans [11]) of the same molecule?
**A.** The Activity was 5.2%.

**Q.** And the MIC (Candida parapsilosis)?
**A.** The MIC was 4 µg/mL (≈ 13.1 µM).

**Q.** What about the Activity (Candida albicans [12]) of the same molecule?
**A.** Its Activity is 75.2%.

**Q.** And the MIC (Candida albicans [13])?
**A.** Its MIC is greater than 128 µg/mL.

**Q.** And the Activity (Candida albicans [14])?
**A.** The Activity was 7.4%.

**Q.** And the Activity (Candida albicans [15])?
**A.** Its Activity is 6.7%.

**Q.** What about the Activity (Candida albicans [16]) of the same molecule?
**A.** The Activity was 8.3%.

**Q.** And the Activity (Candida albicans [17])?
**A.** Its Activity is 9.5%.

**Q.** What about the Activity (Candida albicans [18]) of the same molecule?
**A.** The Activity was 17.7%.

**Q.** And the Activity (Candida albicans [19])?
**A.** Its Activity is 11.4%.

**Q.** And the Activity (Candida albicans [20])?
**A.** Its Activity is 7.1%.

**Q.** What about the Activity (Candida albicans [21]) of the same molecule?
**A.** Its Activity is 70.6%.

**Q.** And the Activity (Candida albicans [22])?
**A.** The Activity was 1.6%.

**Q.** And the MIC (Pichia kudriavzevii)?
**A.** Its MIC is 32 µg/mL (≈ 104 µM).

**Q.** What about the Activity (Candida albicans [23]) of the same molecule?
**A.** Its Activity is 74.8%.

**Q.** What about the Activity (Candida albicans [24]) of the same molecule?
**A.** Its Activity is 9.2%.

**Q.** What about the MIC (Nakaseomyces glabratus) of the same molecule?
**A.** Its MIC is 32 µg/mL (≈ 104 µM).

**Q.** And the MIC (Aspergillus fumigatus)?
**A.** The MIC was greater than 128 µg/mL.

**Q.** And the MIC (Cryptococcus neoformans)?
**A.** Its MIC is 4 µg/mL (≈ 13.1 µM).

**Q.** And the MIC (Candida albicans [25])?
**A.** The MIC was greater than 128 µg/mL.

**Q.** What about the Activity (Candida albicans [26]) of the same molecule?
**A.** Its Activity is 70.6%.

**Q.** And the MIC (Candida albicans [27])?
**A.** The MIC was greater than 128 µg/mL.

From ChEMBL document CHEMBL4765323, “Design, synthesis, and biological evaluation of novel miconazole analogues containing selenium as potent antifungal agents” (Eur J Med Chem, 2020)
